Measured values reported in ChEMBL document CHEMBL2095176, “GSK Tuberculosis Screening Data”.
Converted amounts (≈) assume the structure as drawn.

Tested on: Mycobacterium tuberculosis variant bovis BCG
Test: microbe, parasite or virus in culture
Assay type: functional

Structure (SMILES) | MIC90 [µM]
O=C(O)C(F)(F)F.c1ccc(C[C@H]2CN(c3nccc(Oc4ccc(-n5ccnc5)cc4)n3)CCN2)cc1 | 8.2
COCCN1CCN(c2ccnc(-n3cnc4cc(C)c(C)cc43)n2)CC1 | 0.8 (≈ 0.293 µg/mL)
O=C(CCc1cc2ccccc2o1)NNC(=O)c1cccs1 | 5.1 (≈ 1.6 µg/mL)
CC(Oc1ccccc1)C(=O)Nc1nc(-c2ccccn2)cs1 (centres undefined) | 5.4 (≈ 1.76 µg/mL)
Nc1cccnc1Nc1ccc(C(F)(F)F)cc1 | 3.7 (≈ 0.937 µg/mL)
Cc1[nH]n2c(=O)cc(-c3ccccc3Cl)nc2c1-c1ccccc1 | 8.1 (≈ 2.72 µg/mL)
O=C(Nc1nnc(-c2ccc(Cl)s2)o1)c1ccc(S(=O)(=O)N2CCCCC2)cc1 | 7.3 (≈ 3.31 µg/mL)
CCCCN1CCC(Cc2noc(-c3cc(Cl)c(N)c4c3OCCO4)n2)C1 (centres undefined) | 6.9 (≈ 2.71 µg/mL)
CCN(CC)CCCn1c(Sc2ccnc(N3CCN(c4ccncc4)CC3)n2)nnc1-c1ccccc1 | 2.4 (≈ 1.27 µg/mL)
Cc1cccc(-c2noc(CNC(=O)c3ccccc3CCc3ccccc3)n2)c1 | 6.1 (≈ 2.42 µg/mL)
O=C(NCc1ccccc1)N1CCN(Cc2ccc3c(c2)OCO3)CC1 | 4.9 (≈ 1.73 µg/mL)
O=C(NC12CC3CC(CC(C3)C1)C2)c1cc2cc(Cl)ccc2[nH]1 | 0.8 (≈ 0.263 µg/mL)
O=C(NCc1ccc(Oc2ccccc2)cc1)c1c(C(F)(F)F)nc2ccccn12 | 0.2 (≈ 0.0823 µg/mL)
COc1ccc(-c2ccc(Nc3cccc(S(=O)(=O)CCNCc4nccn4C)c3)nc2)cn1 | 4.3 (≈ 2.06 µg/mL)
CSc1cccc(-c2nnc(NC(=O)c3ccc4c(c3)CCCC4)o2)c1 | 7.2 (≈ 2.63 µg/mL)
COc1ccc2nc(C)cc(OCC(=O)NCc3ccccc3)c2c1 | 3.6 (≈ 1.21 µg/mL)
O=C(NNC(=O)c1cccs1)c1ccc(OCc2ccccc2)cc1 | 9.9 (≈ 3.49 µg/mL)
Cc1cccc(C)c1CNc1c(C(N)=O)cnc2c(C)cccc12 | 5.9 (≈ 1.88 µg/mL)
O=C(Nc1ccccc1C(F)(F)F)N1CCN(c2ccc3nnc(-c4ccc(F)cc4)n3n2)CC1 | 4 (≈ 1.94 µg/mL)
O=C(NC1CCNCC1)c1nn(-c2ccc(Cl)cc2)c(=O)cc1N1CCC(Cc2ccccc2)CC1 | 7.6 (≈ 3.85 µg/mL)
CC(=O)NCCn1c(Sc2ccnc(N3CCN(c4ccncc4)CC3)n2)nnc1-c1ccccc1 | 4 (≈ 2.01 µg/mL)
Cc1cc2c(NC(=O)NC3CCN(c4ccc(C(F)(F)F)cn4)CC3)cccc2c(C)n1 | 3.1 (≈ 1.37 µg/mL)

Structure (SMILES) | MIC90 [µM]
COc1ccc(-c2cnc(Nc3cccc(S(=O)(=O)CCN4CCc5ccccc5C4)c3)nc2)cn1 | 5.7 (≈ 2.86 µg/mL)
O=C(CSc1nnc(-c2ccccc2)o1)Nc1nc(-c2ccccn2)cs1 | 6.6 (≈ 2.61 µg/mL)
Cc1ccc2sc(N(CCCn3ccnc3)C(=O)c3ccco3)nc2c1C | 5.6 (≈ 2.13 µg/mL)
CN1CC[C@@H](Oc2cc(-c3noc(-c4ccc(Br)s4)n3)ccc2C(F)(F)F)C1 | 8.4 (≈ 3.98 µg/mL)
COc1ccc2nc(C)cc(OCC(=O)Nc3cc(C)cc(C)c3)c2c1 | 0.5 (≈ 0.175 µg/mL)
CN(C)c1ccc(NC(=O)Nc2cccc3ncccc23)cc1 | 9.8 (≈ 3 µg/mL)
Cc1cc(Br)ccc1-c1ccc(CNCC(C)O)o1 (centres undefined) | 9.9 (≈ 3.21 µg/mL)
CC(C)n1cc(CN2CCCC(C(=O)c3ccc(-c4ccccc4)cc3)C2)cn1 (centres undefined) | 8.9 (≈ 3.45 µg/mL)
Cc1nnc(NCc2ccccc2)c2ccccc12 | 4.4 (≈ 1.1 µg/mL)
Nc1cccnc1Nc1ccc(Cl)cc1 | 1.1 (≈ 0.242 µg/mL)
COc1ccc(S(=O)(=O)CC(=O)N(CCN(C)C)c2nc3c(C)ccc(Cl)c3s2)cc1 | 7 (≈ 3.37 µg/mL)
CCOc1cc(CC)c(Br)cc1C(=O)Nc1cccc2c1CCN(C)C2 | 4.6 (≈ 1.92 µg/mL)
COc1ccc(S(=O)(=O)Nc2ccc(Nc3ccccc3)cc2OC)cc1 | 3 (≈ 1.15 µg/mL)
Oc1cc(CSc2ccc(Cl)cc2)nc(-c2ccccn2)n1 | 5.3 (≈ 1.75 µg/mL)
O=C(CCc1ccsc1)Nc1nc(-c2ccccn2)cs1 | 9.4 (≈ 2.96 µg/mL)
Cc1ccc(C2(c3ccc(C)cc3)NC(=O)N(CC(=O)N3CCC(Cc4ccccc4)CC3)C2=O)cc1 | 6.2 (≈ 3.07 µg/mL)
CCN(Cc1nc2ccccc2c(=O)[nH]1)C1CCCc2cccnc21 (centres undefined) | 4.4 (≈ 1.47 µg/mL)
CN(Cc1nc2ccccc2s1)C(=O)c1ccc2c(c1)CC(c1ccccc1)OC2=O (centres undefined) | 4.7 (≈ 2.01 µg/mL)
O=C(Nc1ccc(N2CCNCC2)cc1)c1ccn2ncc(-c3cccc(Cl)c3)c2n1 | 8.5 (≈ 3.68 µg/mL)
CCOC(=O)c1csc(-c2ccccc2NC(=O)OCC2CCNCC2)n1 | 9.3 (≈ 3.62 µg/mL)
Cc1cc(N2CCCN(C)CC2)nc(Nc2cc(F)cc(F)c2)n1 | 3.4 (≈ 1.13 µg/mL)
O=C(c1cccc(-c2noc(-c3ccccc3)n2)c1)N1CCCCC1CCO (centres undefined) | 0.9 (≈ 0.34 µg/mL)
